In PubChem BioAssay (NCI):
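Grown in 96-well plates, cells were treated for 48 hours with each compound at five concentrations. Insufficient inhibition: endpoint recorded as highest concentration tested. Here, GI50 denotes the concentration required for 50% inhibition of growth. Definition used: TGI = concentration required for complete inhibition of growth.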

Key:
Assay in all cases: NCI anticancer screen, dose series, 48 h
786-0 renal = system: 786-0 renal
A498 renal = system: A498 renal
A549 NSCLC = system: A549 NSCLC
ACHN renal = system: ACHN renal
BT-549 breast = system: BT-549 breast
CAKI-1 renal = system: CAKI-1 renal
COLO 205 colon = system: COLO 205 colon
DU-145 prostate = system: DU-145 prostate
EKVX NSCLC = system: EKVX NSCLC
HCC-2998 colon = system: HCC-2998 colon
HCT-116 colon = system: HCT-116 colon
HCT-15 colon = system: HCT-15 colon
HL-60(TB) leukemia = system: HL-60(TB) leukemia
HOP-62 NSCLC = system: HOP-62 NSCLC
HOP-92 NSCLC = system: HOP-92 NSCLC
HS 578T breast = system: HS 578T breast
HT29 colon = system: HT29 colon
IGROV1 ovarian = system: IGROV1 ovarian
K-562 leukemia = system: K-562 leukemia
KM12 colon = system: KM12 colon
LOX IMVI melanoma = system: LOX IMVI melanoma
M14 melanoma = system: M14 melanoma
MALME-3M melanoma = system: MALME-3M melanoma
MDA-MB-231 breast = system: MDA-MB-231 breast
MDA-MB-435 = system: MDA-MB-435
MOLT-4 leukemia = system: MOLT-4 leukemia
NCI-H226 lung = system: NCI-H226 lung
NCI-H23 lung = system: NCI-H23 lung
NCI-H460 lung = system: NCI-H460 lung
NCI-H522 lung = system: NCI-H522 lung
NCI/ADR-RES ovarian = system: NCI/ADR-RES ovarian
OVCAR-4 ovarian = system: OVCAR-4 ovarian
OVCAR-5 ovarian = system: OVCAR-5 ovarian
OVCAR-8 ovarian = system: OVCAR-8 ovarian
PC-3 prostate = system: PC-3 prostate
RPMI-8226 leukemia = system: RPMI-8226 leukemia
RXF 393 renal = system: RXF 393 renal
SF-268 CNS = system: SF-268 CNS
SF-295 CNS = system: SF-295 CNS
SF-539 CNS = system: SF-539 CNS
SK-MEL-2 melanoma = system: SK-MEL-2 melanoma
SK-MEL-28 melanoma = system: SK-MEL-28 melanoma
SK-MEL-5 melanoma = system: SK-MEL-5 melanoma
SK-OV-3 ovarian = system: SK-OV-3 ovarian
SN12C renal = system: SN12C renal
SNB-19 CNS = system: SNB-19 CNS
SNB-75 CNS = system: SNB-75 CNS
SR leukemia = system: SR leukemia
SW-620 colon = system: SW-620 colon
TK-10 renal = system: TK-10 renal
U251 CNS = system: U251 CNS
UACC-257 melanoma = system: UACC-257 melanoma
UACC-62 melanoma = system: UACC-62 melanoma
UO-31 renal = system: UO-31 renal

`CCc1ccc(SC2c3ccc(N(CC)CC)cc3Oc3nc(N)c(C#N)c(N)c32)cc1` (stereo not drawn) was tested, and the GI50 (786-0 renal) was 1740 nM, the TGI (786-0 renal) was 3170 nM and the GI50 (A498 renal) was 1630 nM. For the same compound, the TGI (A498 renal) was 3010 nM, the GI50 (A549 NSCLC) was 1810 nM and the TGI (A549 NSCLC) was 3320 nM. It also gave a GI50 (ACHN renal) of 1670 nM, a TGI (ACHN renal) of 3040 nM and a GI50 (BT-549 breast) of 1300 nM. It also gave a TGI (BT-549 breast) of 2590 nM, a GI50 (CAKI-1 renal) of 1630 nM and a TGI (CAKI-1 renal) of 3000 nM. It also gave a GI50 (COLO 205 colon) of 1920 nM, a TGI (COLO 205 colon) of 3510 nM and a GI50 (DU-145 prostate) of 1860 nM. For the same compound, the TGI (DU-145 prostate) was 3260 nM, the GI50 (EKVX NSCLC) was 710 nM and the TGI (EKVX NSCLC) was 2070 nM. The GI50 (HCC-2998 colon) was 1860 nM, the TGI (HCC-2998 colon) was 3390 nM and the GI50 (HCT-116 colon) was 1130 nM. It also gave a TGI (HCT-116 colon) of 2490 nM, a GI50 (HCT-15 colon) of 1620 nM and a TGI (HCT-15 colon) of 3340 nM. For the same compound, the GI50 (HL-60(TB) leukemia) was 2590 nM, the TGI (HL-60(TB) leukemia) was 8340 nM and the GI50 (HOP-62 NSCLC) was 1830 nM. It also gave a TGI (HOP-62 NSCLC) of 3330 nM, a GI50 (HOP-92 NSCLC) of 1480 nM and a TGI (HOP-92 NSCLC) of 2840 nM. It also gave a GI50 (HS 578T breast) of 1760 nM, a TGI (HS 578T breast) of 4850 nM and a GI50 (HT29 colon) of 2030 nM. The TGI (HT29 colon) was 3760 nM, the GI50 (IGROV1 ovarian) was 1440 nM and the TGI (IGROV1 ovarian) was 2890 nM. For the same compound, the GI50 (K-562 leukemia) was 3120 nM, the TGI (K-562 leukemia) was > 100000 nM and the GI50 (KM12 colon) was 1580 nM. It also gave a TGI (KM12 colon) of 3030 nM, a GI50 (LOX IMVI melanoma) of 671 nM and a TGI (LOX IMVI melanoma) of 1970 nM. It also gave a GI50 (M14 melanoma) of 1450 nM, a TGI (M14 melanoma) of 2830 nM and a GI50 (MALME-3M melanoma) of 1750 nM. It also gave a TGI (MALME-3M melanoma) of 3160 nM, a GI50 (MDA-MB-231 breast) of 1630 nM and a TGI (MDA-MB-231 breast) of 3040 nM. For the same compound, the GI50 (MDA-MB-435) was 1680 nM, the TGI (MDA-MB-435) was 3100 nM and the GI50 (MOLT-4 leukemia) was 2190 nM. The TGI (MOLT-4 leukemia) was > 100000 nM, the GI50 (NCI-H226 lung) was 2010 nM and the TGI (NCI-H226 lung) was 4520 nM. The GI50 (NCI-H23 lung) was 1530 nM, the TGI (NCI-H23 lung) was 3030 nM and the GI50 (NCI-H460 lung) was 1840 nM. It also gave a TGI (NCI-H460 lung) of 3550 nM, a GI50 (NCI-H522 lung) of 1780 nM and a TGI (NCI-H522 lung) of 3280 nM. The GI50 (NCI/ADR-RES ovarian) was 2090 nM, the TGI (NCI/ADR-RES ovarian) was 4960 nM and the GI50 (OVCAR-4 ovarian) was 1700 nM. For the same compound, the TGI (OVCAR-4 ovarian) was 3090 nM, the GI50 (OVCAR-5 ovarian) was 1800 nM and the TGI (OVCAR-5 ovarian) was 3240 nM. For the same compound, the GI50 (OVCAR-8 ovarian) was 1710 nM, the TGI (OVCAR-8 ovarian) was 3130 nM and the GI50 (PC-3 prostate) was 1410 nM. For the same compound, the TGI (PC-3 prostate) was 2900 nM, the GI50 (RPMI-8226 leukemia) was 2180 nM and the TGI (RPMI-8226 leukemia) was 6080 nM. For the same compound, the GI50 (RXF 393 renal) was 1580 nM, the TGI (RXF 393 renal) was 2960 nM and the GI50 (SF-268 CNS) was 1760 nM. For the same compound, the TGI (SF-268 CNS) was 3270 nM, the GI50 (SF-295 CNS) was 1760 nM and the TGI (SF-295 CNS) was 3200 nM. For the same compound, the GI50 (SF-539 CNS) was 1660 nM, the TGI (SF-539 CNS) was 3050 nM and the GI50 (SK-MEL-2 melanoma) was 1740 nM. It also gave a TGI (SK-MEL-2 melanoma) of 3170 nM, a GI50 (SK-MEL-28 melanoma) of 1890 nM and a TGI (SK-MEL-28 melanoma) of 3310 nM. For the same compound, the GI50 (SK-MEL-5 melanoma) was 1770 nM, the TGI (SK-MEL-5 melanoma) was 3170 nM and the GI50 (SK-OV-3 ovarian) was 1890 nM. It also gave a TGI (SK-OV-3 ovarian) of 3340 nM, a GI50 (SN12C renal) of 1680 nM and a TGI (SN12C renal) of 3130 nM. The GI50 (SNB-19 CNS) was 1690 nM, the TGI (SNB-19 CNS) was 3080 nM and the GI50 (SNB-75 CNS) was 1500 nM. The TGI (SNB-75 CNS) was 2830 nM, the GI50 (SR leukemia) was 482 nM and the TGI (SR leukemia) was > 100000 nM. For the same compound, the GI50 (SW-620 colon) was 1880 nM, the TGI (SW-620 colon) was 3510 nM and the GI50 (TK-10 renal) was 2750 nM. The TGI (TK-10 renal) was 4260 nM, the GI50 (U251 CNS) was 1440 nM and the TGI (U251 CNS) was 2820 nM. It also gave a GI50 (UACC-257 melanoma) of 1840 nM, a TGI (UACC-257 melanoma) of 3280 nM and a GI50 (UACC-62 melanoma) of 1700 nM. It also gave a TGI (UACC-62 melanoma) of 3130 nM, a GI50 (UO-31 renal) of 1450 nM and a TGI (UO-31 renal) of 2760 nM.
